For test [1], the target named is T1, lanosterol demethylase (Candida albicans, UniProt P10613).
T1 construct: endogenous in cells; host or cells: Candida albicans SGY677
In words: inhibition of lanosterol demethylase, spectrophotometric carbon monoxide binding assay. The following applies: Candida albicans SGY677; read-out: concentration which gives 50% inhibition of carbon monoxide binding. The method, then: (§1) The inhibition of lanosterol demethylase was determined by two methods: the spectrophotometric carbon monoxide binding assay of Omura and Sato (J. Biol. Chem. 239:2370-2378, 1964) and by a radiolabeled metabolic assay.
Cells of Candida albicans, SGY677, were grown overnight without shaking at 30° C. in a medium consisting of yeast extract 1%, peptone 2%, glucose 2% and distilled water. Cells were harvested by centrifugation and resuspended in 0.65M mannitol to an optical density at 600 nm of 2.5. At this density 1 ml of cells was equal to 6.7 mg constant dry weight (105° C. for 18 hours).
Scopularin and its alcohol derivative of Example 4 were added to the enzyme and the inhibition of carbon monoxide binding determined over a range of inhibitor concentrations.

Test [2] deals with T2, lanosterol demethylase of Candida albicans (Candida albicans, UniProt P10613).
T2 construct: 14C-acetate sterol labelling, TLC
T2 sequence (P10613 whole entry): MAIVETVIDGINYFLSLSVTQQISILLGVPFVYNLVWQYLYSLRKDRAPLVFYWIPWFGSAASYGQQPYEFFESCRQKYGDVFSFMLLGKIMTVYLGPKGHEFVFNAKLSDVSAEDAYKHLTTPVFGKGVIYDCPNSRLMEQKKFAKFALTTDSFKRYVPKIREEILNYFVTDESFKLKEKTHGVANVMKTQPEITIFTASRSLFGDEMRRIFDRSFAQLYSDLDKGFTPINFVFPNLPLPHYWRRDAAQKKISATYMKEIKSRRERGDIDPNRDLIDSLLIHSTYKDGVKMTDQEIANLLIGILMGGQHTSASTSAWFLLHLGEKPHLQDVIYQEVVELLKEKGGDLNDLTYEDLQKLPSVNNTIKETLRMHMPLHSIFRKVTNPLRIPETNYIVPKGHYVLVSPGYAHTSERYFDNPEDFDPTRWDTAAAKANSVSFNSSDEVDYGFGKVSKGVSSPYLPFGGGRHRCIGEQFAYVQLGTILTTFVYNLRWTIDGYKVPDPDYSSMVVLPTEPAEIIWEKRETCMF
In words: inhibition of lanosterol demethylase, radiolabeled metabolic assay (14C-acetate, lanosterol accumulation). It is filed as cell-based. Conditions: Candida albicans SC5314, 14C-acetate, 30°. How it is done: as §1
The ability of scopularin and its alcohol to inhibit the lanosterol demethylase of Candida albicans can also be visualized by a metabolic assay. Candida albicans, SC5314, was grown overnight at 30° with shaking in the same medium as that used above. Cells were harvested by centrifugation and resuspended in water to give an optical density of 0.3 at 660 nm. 750 μl of this cell suspension, 300 μl of a medium containing 0.35 g Difco yeast nitrogen base without amino acids, 1 g glucose and distilled water to 10 ml, 100 μl of test material and distilled water were combined to give a final volume of 1.425 ml. This was incubated for 15 minutes at 30° C. with shaking, then 3 μCi ^14 C-acetate was added and continued to incubate for 1 hour. Cells were harvested by centrifugation and extracted with 2×0.5 ml methanol; centrifuged, decanted supernate and repeated the extraction with […] methanol-benzene (1:1). Centrifuged, decanted; combined supernates, dried and resuspended in 100 μl chloroform-methanol (1:1). The aliquots were spotted onto silica gel 60 (Merck) plates and developed chromatographically in a solvent containing dichloromethane-acetone (60:1). […]

In test [3] the test system is cytochrome P450 enzymes, such as lanosterol demethylase. Description: inhibition of cytochrome P450 enzymes (general statement). It is filed as biochemical. Conditions: in words.
For test [4], the system named is yeasts and fungi. In words: activity against a variety of yeasts and fungi (general statement). It is filed as cell-based. The following applies: in words.

The structures appear in SMILES notation.

The record followed here is US5270334A, “4-methoxy-5-methyl-pyran-3-ol natural products and derivatives thereof” (E. R. Squibb & Sons, Inc., priority 1992, dated 1993).

T1 sequence (P10613 whole entry): as above

In the case of `CCC/C=C/C=C/C=C(\C)[C@H]1OC[C@@H](C)[C@@H](OC)[C@@H]1O` (relative stereo) [Example 4], the IC50 in test [1] was 14 µM. Also, the “concentration causing accumulation of lanosterol, consistent with inhibition of lanosterol demethylase” value in test [2] is 1.4×10^-6. Further, the “inhibition of cytochrome P450 enzymes, such as lanosterol demethylase” value in test [3] was “inhibitor”.
Consider `C/C=C/C=C/C=C(\C)[C@@H]1OC[C@H](C)[C@H](OC)[C@H]1OC(=O)CN[C@@H]1O[C@H](CO)[C@@H](O)[C@H](O)[C@H]1O` [Ic], for which the “inhibition of cytochrome P450 enzymes, such as lanosterol demethylase” value in test [3] is recorded as “inhibit”. In test [4], the “activity against a variety of yeasts and fungi” value is reported as “has activity”.
